Measurements as given in patent US3970642A, “Process for the conversion of niddamycin to leucomycin A1, leucomycin A3, carbomycin B and other antibiotics and related 3-O-esters” (Abbott Laboratories, priority 1974, dated 1976).
Converted amounts (≈) assume the structure as drawn.

Tests used:
Type in all cases: cell-based
Mycoplasma pneumoniae FH = assay: Standard two-fold tube dilution test, activity against Mycoplasma pneumoniae FH; settings: 144 h, PPLO broth, six days at 37°C, read-out: Minimum Inhibitory Concentration
Method: (§1) Three nid damycin and two dihydroniddamycin compounds were tested for their activity against Streptococcus pyogenes C203, and Diplococcus pneumoniae 6301 and Mycoplasma pneumoniae FH.
(§2) A standard two-fold tube dilution test was used. The medium inoculum were varied with each culture.
In the test for activity against Mycoplasma pneumoniae FH, 4.5 ml. portions of PPLO broth were used with 0.5 ml. of 1:100 dilution culture. The test was incubated for six days at 37°C.

[1] = tested on: Diplococcus pneumoniae 6301; assay: Standard two-fold tube dilution test, activity against Diplococcus pneumoniae 6301; settings: Streptococcus pneumoniae, brain-heart infusion broth and 20% horse serum, 24 hours at 37°C, read-out: Minimum Inhibitory Concentration
Method: as §1, §2
In the test for activity against Diplococcus pneumoniae 6301, 5 ml. portions of brain-heart infusion broth and 20% horse serum were used with 0.1 ml. of 1:100 dilution culture. The test was incubated for 24 hours at 37°C.

[2] = tested on: Streptococcus pyogenes C203; assay: Standard two-fold tube dilution test, activity against Streptococcus pyogenes C203; settings: brain-heart infusion broth, 24 hours at 37°C, read-out: Minimum Inhibitory Concentration
Method: as §1, §2
In the test for activity against Streptococcus pyogenes C203, 5 ml. portions of brain-heart infusion broth were used with 0.1 ml. of 1:100 dilution culture. The test was incubated for 24 hours at 37°C.

COC(CC1CC(C)C(=O)C=CC=CCC(C)OC(=O)CC(O)C(OC)C1OC1OC(C)C(OC2CC(C)(O)C(OC(=O)CC(C)C)C(C)O2)C(N(C)C)C1O)OC (stereo not drawn) [Compound 2, Niddamycin dimethyl acetal]
MIC (Mycoplasma pneumoniae FH): 25 µg/mL (≈ 30.1 µM)
MIC [1]: < 1.56 µg/mL
MIC [2]: 0.78 µg/mL (≈ 0.94 µM)

COC(CC1CC(C)C(=O)C=CC=CCC(C)OC(=O)CC(OC(C)=O)C(OC)C1OC1OC(C)C(OC2CC(C)(O)C(OC(=O)CC(C)C)C(C)O2)C(N(C)C)C1OC(C)=O)OC (stereo not drawn) [Compound 3B, 2',3-Di-(O)-acetylniddamycin dimethyl acetal]
MIC (Mycoplasma pneumoniae FH): > 100 µg/mL
MIC [1]: > 100 µg/mL
MIC [2]: > 100 µg/mL

COC(CC1CC(C)C(O)C=CC=CCC(C)OC(=O)CC(O)C(OC)C1OC1OC(C)C(OC2CC(C)(O)C(OC(=O)CC(C)C)C(C)O2)C(N(C)C)C1O)OC (stereo not drawn) [Compound 4, 9-Dihydroniddamycin B dimethyl acetal]
MIC (Mycoplasma pneumoniae FH): 50 µg/mL (≈ 60.1 µM)
MIC [2]: 6.2 µg/mL (≈ 7.45 µM)

COC(CC1CC(C)C(=O)C=CC=CCC(C)OC(=O)CC(OC(C)=O)C(OC)C1OC1OC(C)C(OC2CC(C)(O)C(OC(=O)CC(C)C)C(C)O2)C(N(C)C)C1O)OC (stereo not drawn) [Compound 6B, 3-(O)-Acetylniddamycin dimethyl acetal]
MIC (Mycoplasma pneumoniae FH): 25 µg/mL (≈ 28.7 µM)
MIC [2]: 12.5 µg/mL (≈ 14.3 µM)

COC(CC1CC(C)C(O)C=CC=CCC(C)OC(=O)CC(OC(C)=O)C(OC)C1OC1OC(C)C(OC2CC(C)(O)C(OC(=O)CC(C)C)C(C)O2)C(N(C)C)C1O)OC (stereo not drawn) [Compound 8B, 3-(O)-Acetyl-9-dihydroniddamycin B dimethyl acetal]
MIC (Mycoplasma pneumoniae FH): 50 µg/mL (≈ 57.2 µM)
MIC [2]: 25 µg/mL (≈ 28.6 µM)
